What was measured:
Assay in all cases: Competitive isoTOP-ABPP, cell lysates
Type in all cases: binding
RRAGC C358 (Q9HB90) = RRAGC C358 (Q9HB90) (Homo sapiens, UniProt Q9HB90); conditions: for isoTOP-ABPP reactivity profile ratio, Q9HB90_C358 / isoTOP-ABPP reactivity ratio, Q9HB90_C358: 500 μm; for R value (DMSO/fragment) / isoTOP-ABPP ratio, Q9HB90_C358: 500 μM; for isoTOP-ABPP ratio, Q9HB90_C358: 231
RRAGC C377 (Q9HB90) = RRAGC C377 (Q9HB90) (Homo sapiens, UniProt Q9HB90); conditions: for R value (DMSO/fragment) / isoTOP-ABPP ratio, Q9HB90_C377: 500 μM; for R value (DMSO/fragment): in vitro, MDA-MB-231; for isoTOP-ABPP ratio, Q9HB90_C377: invitro
Sequence of RRAGC C377 (Q9HB90) (Q9HB90 2-399 limits assumed): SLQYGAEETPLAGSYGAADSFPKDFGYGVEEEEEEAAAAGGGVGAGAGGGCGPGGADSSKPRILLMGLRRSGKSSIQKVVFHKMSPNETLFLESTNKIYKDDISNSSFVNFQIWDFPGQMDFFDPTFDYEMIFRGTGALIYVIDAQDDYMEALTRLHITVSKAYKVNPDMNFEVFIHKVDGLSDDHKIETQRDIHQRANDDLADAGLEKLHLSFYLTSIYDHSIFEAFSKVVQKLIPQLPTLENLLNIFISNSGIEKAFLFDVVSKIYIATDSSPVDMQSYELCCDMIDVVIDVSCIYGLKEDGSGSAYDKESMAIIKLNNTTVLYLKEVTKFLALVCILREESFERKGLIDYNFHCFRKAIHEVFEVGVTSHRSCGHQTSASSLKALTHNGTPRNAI
Sequence of RRAGC C377 (Q9HB90) (Q7L523 whole entry partner, the tested form may be a part): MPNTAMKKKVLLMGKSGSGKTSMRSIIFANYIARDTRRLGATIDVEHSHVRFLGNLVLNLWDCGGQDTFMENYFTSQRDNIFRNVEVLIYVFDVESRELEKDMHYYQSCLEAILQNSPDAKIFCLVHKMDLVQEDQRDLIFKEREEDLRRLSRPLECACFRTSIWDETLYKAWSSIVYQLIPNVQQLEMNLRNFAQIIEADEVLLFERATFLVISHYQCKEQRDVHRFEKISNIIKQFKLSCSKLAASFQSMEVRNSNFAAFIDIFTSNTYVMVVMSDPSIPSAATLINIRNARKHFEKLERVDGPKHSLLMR

MGMT C145 (P16455) = target: T1, MGMT C145 (P16455) (Homo sapiens, UniProt P16455); conditions: for R value (DMSO/fragment) / isoTOP-ABPP ratio, P16455_C145: 500 μM, invitro, ramos; for isoTOP-ABPP ratio (reactivity profile), P16455_C145: 500 μm in-vitro ramos
T1 sequence (P16455 1-207): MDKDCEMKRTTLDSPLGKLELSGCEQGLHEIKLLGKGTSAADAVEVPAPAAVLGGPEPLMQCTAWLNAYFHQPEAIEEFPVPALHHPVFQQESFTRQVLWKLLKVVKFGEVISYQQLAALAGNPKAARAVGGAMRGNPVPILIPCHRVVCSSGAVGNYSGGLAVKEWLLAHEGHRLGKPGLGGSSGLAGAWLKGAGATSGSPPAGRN

USP48 C39 (Q86UV5) = target: T2, USP48 C39 (Q86UV5) (Homo sapiens, UniProt Q86UV5); conditions: for R value (DMSO/fragment) / isoTOP-ABPP ratio, Q86UV5_C39: 500 μM
T2 sequence (Q86UV5 1-1035): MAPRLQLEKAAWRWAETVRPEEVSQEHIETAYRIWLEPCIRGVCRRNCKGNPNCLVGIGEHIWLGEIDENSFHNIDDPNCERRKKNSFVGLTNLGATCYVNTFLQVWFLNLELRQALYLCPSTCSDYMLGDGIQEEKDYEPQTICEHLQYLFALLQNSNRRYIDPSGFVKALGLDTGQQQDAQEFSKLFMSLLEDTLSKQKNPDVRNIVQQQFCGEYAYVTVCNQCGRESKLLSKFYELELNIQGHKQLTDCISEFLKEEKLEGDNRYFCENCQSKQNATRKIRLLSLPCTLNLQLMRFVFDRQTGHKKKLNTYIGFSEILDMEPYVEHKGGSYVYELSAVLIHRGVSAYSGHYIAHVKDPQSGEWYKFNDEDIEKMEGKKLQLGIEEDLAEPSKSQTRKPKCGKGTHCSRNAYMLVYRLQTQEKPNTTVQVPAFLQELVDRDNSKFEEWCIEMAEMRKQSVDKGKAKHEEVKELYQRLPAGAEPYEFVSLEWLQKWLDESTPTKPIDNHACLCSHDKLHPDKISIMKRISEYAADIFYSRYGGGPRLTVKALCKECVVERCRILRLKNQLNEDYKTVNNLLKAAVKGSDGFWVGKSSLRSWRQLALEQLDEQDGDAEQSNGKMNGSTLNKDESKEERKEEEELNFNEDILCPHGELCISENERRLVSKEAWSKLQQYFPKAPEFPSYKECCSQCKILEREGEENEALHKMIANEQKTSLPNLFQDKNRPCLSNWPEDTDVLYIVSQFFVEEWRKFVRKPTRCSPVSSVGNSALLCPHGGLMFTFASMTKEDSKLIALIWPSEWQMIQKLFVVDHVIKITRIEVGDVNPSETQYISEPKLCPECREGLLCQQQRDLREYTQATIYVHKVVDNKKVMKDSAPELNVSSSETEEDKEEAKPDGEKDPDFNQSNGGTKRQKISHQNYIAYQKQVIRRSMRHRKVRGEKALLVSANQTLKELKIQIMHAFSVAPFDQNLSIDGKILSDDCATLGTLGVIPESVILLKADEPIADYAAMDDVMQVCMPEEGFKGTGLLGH

Sequence of RRAGC C358 (Q9HB90) (Q9HB90 2-399 limits assumed): as the sequence (Q9HB90 2-399 limits assumed) above
Sequence of RRAGC C358 (Q9HB90) (Q7L523 whole entry partner, the tested form may be a part): as the sequence (Q7L523 whole entry partner, the tested form may be a part) above

**Q.** How did the “isoTOP-ABPP reactivity profile ratio, Q9HB90_C358” value (RRAGC C358 (Q9HB90); in-vitro_ramos) turn out when C=CC(=O)N1CCC(Cc2ccccc2)CC1 [compound 53] was run?
**A.** The value was 0.6.

**Q.** And the “isoTOP-ABPP reactivity profile ratio, Q9HB90_C377” value (RRAGC C377 (Q9HB90); 500 μm, in-vitro_ramos)?
**A.** The value was 1.1.

**Q.** What about the “isoTOP-ABPP reactivity profile ratio, P16455_C145” value (MGMT C145 (P16455); 500 μm, in-vitro_ramos) of the same compound?
**A.** Its value is 1.0.

**Q.** Which “R value (DMSO/fragment)” value (RRAGC C358 (Q9HB90); in vitro, MDA-MB-231) does the source give for COc1ccc2c(c1)CCCN2C(=O)CCl [compound 2] here?
**A.** Its value is 20.0.

**Q.** What about the “R value (DMSO/fragment)” value (RRAGC C358 (Q9HB90); invitro, ramos) of the same compound?
**A.** Its value is 20.0.

**Q.** And the “R value (DMSO/fragment)” value (USP48 C39 (Q86UV5); invitro, ramos)?
**A.** Its value is 7.1.

**Q.** And the “R value (DMSO/fragment)” value (RRAGC C377 (Q9HB90))?
**A.** The value was 20.0.

**Q.** And the “R value (DMSO/fragment)” value (MGMT C145 (P16455))?
**A.** Its value is 20.0.

**Q.** Cn1cc(S(=O)(=O)N2CCOCC2)cc1C(=O)NC(=O)CCl [compound 11] was tested. Which “isoTOP-ABPP ratio, Q86UV5_C39” value (USP48 C39 (Q86UV5); invitro, ramos) did it give?
**A.** Its value is 1.0.

**Q.** And the “isoTOP-ABPP ratio, Q9HB90_C377” value (RRAGC C377 (Q9HB90); ramos)?
**A.** The value was 1.6.

**Q.** What about the “isoTOP-ABPP ratio, P16455_C145” value (MGMT C145 (P16455)) of the same compound?
**A.** The value was 20.0.

**Q.** Which results are given for COc1ccccc1OCCNC(=O)CCl [compound 28]?
**A.** isoTOP-ABPP ratio (reactivity profile), Q9HB90_C358 (RRAGC C358 (Q9HB90); 500 μm in-vitro ramos_231): 1.1; isoTOP-ABPP ratio (reactivity profile), Q9HB90_C377 (RRAGC C377 (Q9HB90); 500 μm in-vitro ramos_231): 1.3; isoTOP-ABPP ratio (reactivity profile), P16455_C145 (MGMT C145 (P16455)): 20.0

**Q.** What does the source list for C=CC(=O)N(Cc1cccnc1)c1ccc(Oc2ccccc2)c(C(F)(F)F)c1 [compound 15]?
**A.** isoTOP-ABPP ratio, Q9HB90_C358 (RRAGC C358 (Q9HB90); invitro): 1.1; isoTOP-ABPP ratio (reactivity profile), Q86UV5_C39 (USP48 C39 (Q86UV5); 500 μm in-vitro ramos): 0.7; isoTOP-ABPP ratio (reactivity profile), P16455_C145 (MGMT C145 (P16455)): 1.3

**Q.** Which “isoTOP-ABPP ratio, Q9HB90_C358” value (RRAGC C358 (Q9HB90); invitro) does the source give for O=C(CCl)NCCc1c[nH]c2ccccc12 [compound 13] here?
**A.** The value was 1.5.

**Q.** What about the “isoTOP-ABPP ratio, Q86UV5_C39” value (USP48 C39 (Q86UV5); invitro, 231) of the same compound?
**A.** The value was 0.8.

**Q.** What about the “isoTOP-ABPP ratio, Q86UV5_C39” value (USP48 C39 (Q86UV5); invitro, ramos) of the same compound?
**A.** Its value is 0.6.

**Q.** And the “isoTOP-ABPP ratio, Q9HB90_C377” value (RRAGC C377 (Q9HB90); 231)?
**A.** The value was 2.1.

**Q.** What about the “isoTOP-ABPP ratio, P16455_C145” value (MGMT C145 (P16455)) of the same compound?
**A.** Its value is 20.0.

**Q.** Which “isoTOP-ABPP reactivity ratio, Q9HB90_C358” value (RRAGC C358 (Q9HB90); in-vitro_ramos_231) does the source give for Cc1ccc(C=C(C#N)C(=O)NCCN2CCOCC2)cc1 [compound 41] here?
**A.** Its value is 1.3.

**Q.** And the “isoTOP-ABPP reactivity ratio, Q9HB90_C377” value (RRAGC C377 (Q9HB90); 500 μm, in-vitro_ramos_231)?
**A.** Its value is 1.1.

**Q.** And the “isoTOP-ABPP reactivity ratio, P16455_C145” value (MGMT C145 (P16455); 500 μm, in-vitro_ramos_231)?
**A.** The value was 1.9.

**Q.** With CC(Br)C(=O)Nc1cc(C(F)(F)F)cc(C(F)(F)F)c1 (stereo not shown) [compound 24] as the compound, how does the “isoTOP-ABPP ratio (reactivity profile), Q9HB90_C358” value (RRAGC C358 (Q9HB90); 500 μm in-vitro ramos) read?
**A.** Its value is 0.9.

**Q.** What about the “isoTOP-ABPP ratio (reactivity profile), Q86UV5_C39” value (USP48 C39 (Q86UV5); 500 μm in-vitro ramos) of the same compound?
**A.** The value was 1.0.

**Q.** What about the “isoTOP-ABPP ratio (reactivity profile), Q9HB90_C377” value (RRAGC C377 (Q9HB90); 500 μm in-vitro ramos) of the same compound?
**A.** The value was 1.5.

**Q.** And the “isoTOP-ABPP ratio (reactivity profile), P16455_C145” value (MGMT C145 (P16455))?
**A.** Its value is 20.0.

**Q.** Which “R value (DMSO/fragment)” value (RRAGC C358 (Q9HB90); in vitro, MDA-MB-231) does the source give for O=C(CCl)Nc1cc(C(F)(F)F)cc(C(F)(F)F)c1 [compound 3] here?
**A.** The value was 1.2.

**Q.** What about the “R value (DMSO/fragment)” value (USP48 C39 (Q86UV5); in vitro, MDA-MB-231) of the same compound?
**A.** The value was 1.8.

**Q.** And the “R value (DMSO/fragment)” value (USP48 C39 (Q86UV5); invitro, ramos)?
**A.** Its value is 1.5.

**Q.** What about the “R value (DMSO/fragment)” value (RRAGC C377 (Q9HB90)) of the same compound?
**A.** Its value is 3.7.

**Q.** What about the “R value (DMSO/fragment)” value (MGMT C145 (P16455)) of the same compound?
**A.** Its value is 20.0.

**Q.** What does the source list for CC(C)(C)c1cc(NC(=O)CCl)on1 [compound 32]?
**A.** isoTOP-ABPP reactivity ratio, Q9HB90_C358 (RRAGC C358 (Q9HB90); in-vitro_ramos): 1.2; isoTOP-ABPP reactivity ratio, Q9HB90_C358 (RRAGC C358 (Q9HB90); in-vitro_ramos_231): 1.9; isoTOP-ABPP reactivity ratio, Q9HB90_C377 (RRAGC C377 (Q9HB90); 500 μm, in-vitro_ramos): 1.5; isoTOP-ABPP reactivity ratio, P16455_C145 (MGMT C145 (P16455); 500 μm, in-vitro_ramos): 20.0

**Q.** COc1cc(NC(=O)CCl)cc(OC)c1 [compound 43] was tested. Which “isoTOP-ABPP reactivity profile ratio, Q86UV5_C39” value (USP48 C39 (Q86UV5); 500 μm, in-vitro_ramos_231) did it give?
**A.** Its value is 1.5.

**Q.** Which results are given for C=CC(=O)N(c1ccccc1)c1ccc(Br)cc1 [compound 5]?
**A.** isoTOP-ABPP ratio, Q86UV5_C39 (USP48 C39 (Q86UV5); invitro, ramos): 1.2; isoTOP-ABPP ratio, P16455_C145 (MGMT C145 (P16455)): 2.0

**Q.** How did the “isoTOP-ABPP reactivity profile ratio, Q86UV5_C39” value (USP48 C39 (Q86UV5); 500 μm, in-vitro_ramos_231) turn out when O=C(CCl)Nc1ccc(-c2ccccc2)cc1 [compound 52] was run?
**A.** Its value is 0.9.

**Q.** With C=CC(=O)Nc1cc(F)c(N2CCN(C(=O)OC(C)(C)C)CC2)c(F)c1 [compound 38] as the compound, how does the “isoTOP-ABPP reactivity ratio, Q9HB90_C358” value (RRAGC C358 (Q9HB90); in-vitro_ramos_231) read?
**A.** Its value is 1.1.

**Q.** And the “isoTOP-ABPP reactivity ratio, Q86UV5_C39” value (USP48 C39 (Q86UV5); 500 μm, in-vitro_ramos_231)?
**A.** The value was 3.7.

**Q.** What about the “isoTOP-ABPP reactivity ratio, Q9HB90_C377” value (RRAGC C377 (Q9HB90); 500 μm, in-vitro_ramos_231) of the same compound?
**A.** The value was 1.0.

**Q.** For C=CC(=O)N(Cc1cccnc1)c1cc(C(F)(F)F)cc(C(F)(F)F)c1 [compound 31], which “isoTOP-ABPP reactivity ratio, Q9HB90_C358” value (RRAGC C358 (Q9HB90); in-vitro_ramos_231) is on record?
**A.** Its value is 2.3.

**Q.** And the “isoTOP-ABPP reactivity ratio, Q9HB90_C377” value (RRAGC C377 (Q9HB90); 500 μm, in-vitro_ramos_231)?
**A.** Its value is 2.2.

**Q.** What about the “isoTOP-ABPP reactivity ratio, P16455_C145” value (MGMT C145 (P16455); 500 μm, in-vitro_ramos) of the same compound?
**A.** Its value is 1.0.

**Q.** Which “isoTOP-ABPP reactivity profile ratio, Q9HB90_C358” value (RRAGC C358 (Q9HB90); in-vitro_ramos_231) does the source give for C=CC(=O)N(c1ccccc1)C1CCCCC1 [compound 46] here?
**A.** Its value is 1.1.

**Q.** What does the source list for CC(Cl)C(=O)Nc1cc(C(F)(F)F)cc(C(F)(F)F)c1 (stereo not shown) [compound 25]?
**A.** isoTOP-ABPP ratio (reactivity profile), Q9HB90_C358 (RRAGC C358 (Q9HB90); 500 μm in-vitro ramos_231): 0.9; isoTOP-ABPP ratio (reactivity profile), Q86UV5_C39 (USP48 C39 (Q86UV5); 500 μm in-vitro ramos_231): 1.0; isoTOP-ABPP ratio (reactivity profile), Q9HB90_C377 (RRAGC C377 (Q9HB90); 500 μm in-vitro ramos_231): 1.0

— patent publication US10670605B2, “Cysteine reactive probes and uses thereof” (The Scripps Research Institute, priority 2015, dated 2020)
